Experimental data as given in PubChem BioAssay (NCI).
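Grown in 96-well plates, cells were treated for 48 hours with each compound at five concentrations. Insufficient inhibition: endpoint recorded as highest concentration tested. TGI denotes the concentration required for complete inhibition of growth.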

Assays:
Assay in all cases: inhibition of tumour cell growth, NCI panel, 48 h
786-0 renal = tested on: 786-0 renal
A549 NSCLC = tested on: A549 NSCLC
ACHN renal = tested on: ACHN renal
BT-549 breast = tested on: BT-549 breast
CAKI-1 renal = tested on: CAKI-1 renal
CCRF-CEM leukemia = tested on: CCRF-CEM leukemia
COLO 205 colon = tested on: COLO 205 colon
DU-145 prostate = tested on: DU-145 prostate
EKVX NSCLC = tested on: EKVX NSCLC
HCC-2998 colon = tested on: HCC-2998 colon
HCT-116 colon = tested on: HCT-116 colon
HCT-15 colon = tested on: HCT-15 colon
HL-60(TB) leukemia = tested on: HL-60(TB) leukemia
HOP-62 NSCLC = tested on: HOP-62 NSCLC
HS 578T breast = tested on: HS 578T breast
HT29 colon = tested on: HT29 colon
IGROV1 ovarian = tested on: IGROV1 ovarian
K-562 leukemia = tested on: K-562 leukemia
LOX IMVI melanoma = tested on: LOX IMVI melanoma
M14 melanoma = tested on: M14 melanoma
MALME-3M melanoma = tested on: MALME-3M melanoma
MCF7 breast = tested on: MCF7 breast
MDA-MB-231 breast = tested on: MDA-MB-231 breast
MDA-MB-435 = tested on: MDA-MB-435
MDA-N = tested on: MDA-N
MOLT-4 leukemia = tested on: MOLT-4 leukemia
NCI-H226 lung = tested on: NCI-H226 lung
NCI-H23 lung = tested on: NCI-H23 lung
NCI-H460 lung = tested on: NCI-H460 lung
NCI-H522 lung = tested on: NCI-H522 lung
NCI/ADR-RES ovarian = tested on: NCI/ADR-RES ovarian
OVCAR-3 ovarian = tested on: OVCAR-3 ovarian
OVCAR-4 ovarian = tested on: OVCAR-4 ovarian
OVCAR-5 ovarian = tested on: OVCAR-5 ovarian
OVCAR-8 ovarian = tested on: OVCAR-8 ovarian
PC-3 prostate = tested on: PC-3 prostate
RPMI-8226 leukemia = tested on: RPMI-8226 leukemia
RXF 393 renal = tested on: RXF 393 renal
SF-268 CNS = tested on: SF-268 CNS
SF-295 CNS = tested on: SF-295 CNS
SF-539 CNS = tested on: SF-539 CNS
SK-MEL-2 melanoma = tested on: SK-MEL-2 melanoma
SK-MEL-28 melanoma = tested on: SK-MEL-28 melanoma
SK-MEL-5 melanoma = tested on: SK-MEL-5 melanoma
SK-OV-3 ovarian = tested on: SK-OV-3 ovarian
SN12C renal = tested on: SN12C renal
SNB-19 CNS = tested on: SNB-19 CNS
SNB-75 CNS = tested on: SNB-75 CNS
SR leukemia = tested on: SR leukemia
SW-620 colon = tested on: SW-620 colon
T-47D breast = tested on: T-47D breast
TK-10 renal = tested on: TK-10 renal
UACC-257 melanoma = tested on: UACC-257 melanoma
UO-31 renal = tested on: UO-31 renal
HOP-92 NSCLC = tested on: HOP-92 NSCLC
KM12 colon = tested on: KM12 colon
U251 CNS = tested on: U251 CNS
UACC-62 melanoma = tested on: UACC-62 melanoma

CC(=O)N1C(Nc2cnc3ccccc3c2)CCN1c1ccccc1 (centres undefined)
TGI (786-0 renal): > 10 µM | TGI (A549 NSCLC): > 10 µM | TGI (ACHN renal): > 10 µM | TGI (BT-549 breast): > 10 µM | TGI (CAKI-1 renal): > 10 µM | TGI (CCRF-CEM leukemia): > 10 µM | TGI (COLO 205 colon): > 10 µM | TGI (DU-145 prostate): > 10 µM | TGI (EKVX NSCLC): > 10 µM | TGI (HCC-2998 colon): > 10 µM | TGI (HCT-116 colon): > 10 µM | TGI (HCT-15 colon): > 10 µM | TGI (HL-60(TB) leukemia): > 10 µM | TGI (HOP-62 NSCLC): > 10 µM | TGI (HS 578T breast): > 10 µM | TGI (HT29 colon): > 10 µM | TGI (IGROV1 ovarian): > 10 µM | TGI (K-562 leukemia): > 10 µM | TGI (LOX IMVI melanoma): > 10 µM | TGI (M14 melanoma): > 10 µM | TGI (MALME-3M melanoma): > 10 µM | TGI (MCF7 breast): > 10 µM | TGI (MDA-MB-231 breast): > 10 µM | TGI (MDA-MB-435): > 10 µM | TGI (MDA-N): > 10 µM | TGI (MOLT-4 leukemia): > 10 µM | TGI (NCI-H226 lung): > 10 µM | TGI (NCI-H23 lung): > 10 µM | TGI (NCI-H460 lung): > 10 µM | TGI (NCI-H522 lung): > 10 µM | TGI (NCI/ADR-RES ovarian): > 10 µM | TGI (OVCAR-3 ovarian): > 10 µM | TGI (OVCAR-4 ovarian): > 10 µM | TGI (OVCAR-5 ovarian): > 10 µM | TGI (OVCAR-8 ovarian): > 10 µM | TGI (PC-3 prostate): > 10 µM | TGI (RPMI-8226 leukemia): > 10 µM | TGI (RXF 393 renal): > 10 µM | TGI (SF-268 CNS): > 10 µM | TGI (SF-295 CNS): > 10 µM | TGI (SF-539 CNS): > 10 µM | TGI (SK-MEL-2 melanoma): > 10 µM | TGI (SK-MEL-28 melanoma): > 10 µM | TGI (SK-MEL-5 melanoma): > 10 µM | TGI (SK-OV-3 ovarian): > 10 µM | TGI (SN12C renal): > 10 µM | TGI (SNB-19 CNS): > 10 µM | TGI (SNB-75 CNS): > 10 µM | TGI (SR leukemia): > 10 µM | TGI (SW-620 colon): > 10 µM | TGI (T-47D breast): > 10 µM | TGI (TK-10 renal): > 10 µM | TGI (UACC-257 melanoma): > 10 µM | TGI (UO-31 renal): > 10 µM

O=C(Nc1ccc2ncccc2c1)c1cc2c(cc1Cl)Sc1nccn1S2(=O)=O
TGI (786-0 renal): 27.9 µM | TGI (A549 NSCLC): 40.6 µM | TGI (ACHN renal): 87.6 µM | TGI (BT-549 breast): 41.2 µM | TGI (CAKI-1 renal): 79.5 µM | TGI (COLO 205 colon): 37.3 µM | TGI (DU-145 prostate): 31 µM | TGI (EKVX NSCLC): 39.1 µM | TGI (HCC-2998 colon): 27.8 µM | TGI (HCT-116 colon): 25.4 µM | TGI (HCT-15 colon): 24.1 µM | TGI (HL-60(TB) leukemia): 26.6 µM | TGI (HOP-62 NSCLC): 39.8 µM | TGI (HOP-92 NSCLC): 76.7 µM | TGI (HS 578T breast): > 100 µM | TGI (HT29 colon): 31.3 µM | TGI (IGROV1 ovarian): 29.3 µM | TGI (K-562 leukemia): 47 µM | TGI (KM12 colon): 21.7 µM | TGI (LOX IMVI melanoma): 34.2 µM | TGI (M14 melanoma): 29.8 µM | TGI (MALME-3M melanoma): 35.1 µM | TGI (MCF7 breast): 35.2 µM | TGI (MDA-MB-231 breast): 45.1 µM | TGI (MDA-MB-435): 17.1 µM | TGI (MDA-N): 18.3 µM | TGI (MOLT-4 leukemia): 45.5 µM | TGI (NCI-H226 lung): 35.4 µM | TGI (NCI-H23 lung): 32.5 µM | TGI (NCI-H460 lung): 30.6 µM | TGI (NCI-H522 lung): 24.5 µM | TGI (NCI/ADR-RES ovarian): 47.6 µM | TGI (OVCAR-3 ovarian): 47.6 µM | TGI (OVCAR-4 ovarian): 73 µM | TGI (OVCAR-5 ovarian): 39.6 µM | TGI (OVCAR-8 ovarian): 43.7 µM | TGI (PC-3 prostate): > 100 µM | TGI (RPMI-8226 leukemia): 41 µM | TGI (RXF 393 renal): 33.6 µM | TGI (SF-268 CNS): 48.4 µM | TGI (SF-295 CNS): 42 µM | TGI (SF-539 CNS): 57.4 µM | TGI (SK-MEL-2 melanoma): 33.3 µM | TGI (SK-MEL-28 melanoma): 42 µM | TGI (SK-MEL-5 melanoma): 28.8 µM | TGI (SK-OV-3 ovarian): 62.5 µM | TGI (SN12C renal): 33.3 µM | TGI (SNB-19 CNS): 34.6 µM | TGI (SNB-75 CNS): 30.7 µM | TGI (SR leukemia): 45.2 µM | TGI (SW-620 colon): 34.1 µM | TGI (T-47D breast): 45.4 µM | TGI (TK-10 renal): 69.4 µM | TGI (U251 CNS): 26.4 µM | TGI (UACC-257 melanoma): 47.8 µM | TGI (UACC-62 melanoma): 32.7 µM | TGI (UO-31 renal): 39.8 µM

Nc1nc(N)c2c(Cl)c(CNc3ccc(C(=O)NC(CC(=O)O)C(=O)O)cc3)ccc2n1 (centres undefined)
TGI (786-0 renal): > 100 µM | TGI (A549 NSCLC): > 100 µM | TGI (ACHN renal): > 100 µM | TGI (BT-549 breast): > 100 µM | TGI (CAKI-1 renal): > 100 µM | TGI (COLO 205 colon): > 100 µM | TGI (DU-145 prostate): > 100 µM | TGI (HCC-2998 colon): > 100 µM | TGI (HCT-116 colon): > 100 µM | TGI (HCT-15 colon): > 100 µM | TGI (HL-60(TB) leukemia): > 100 µM | TGI (HOP-62 NSCLC): > 100 µM | TGI (HOP-92 NSCLC): > 100 µM | TGI (HS 578T breast): > 100 µM | TGI (HT29 colon): > 100 µM | TGI (IGROV1 ovarian): 0.415 µM | TGI (K-562 leukemia): > 100 µM | TGI (KM12 colon): > 100 µM | TGI (LOX IMVI melanoma): > 100 µM | TGI (M14 melanoma): > 100 µM | TGI (MALME-3M melanoma): > 100 µM | TGI (MCF7 breast): > 34.2 µM | TGI (MDA-MB-231 breast): > 100 µM | TGI (MDA-MB-435): > 100 µM | TGI (MDA-N): > 100 µM | TGI (MOLT-4 leukemia): > 100 µM | TGI (NCI-H226 lung): > 100 µM | TGI (NCI-H23 lung): > 100 µM | TGI (NCI-H460 lung): > 100 µM | TGI (NCI/ADR-RES ovarian): > 100 µM | TGI (OVCAR-3 ovarian): > 100 µM | TGI (OVCAR-4 ovarian): > 100 µM | TGI (OVCAR-8 ovarian): > 100 µM | TGI (PC-3 prostate): > 100 µM | TGI (RPMI-8226 leukemia): > 100 µM | TGI (RXF 393 renal): > 100 µM | TGI (SF-268 CNS): > 100 µM | TGI (SF-295 CNS): > 100 µM | TGI (SF-539 CNS): 31.9 µM | TGI (SK-MEL-2 melanoma): > 100 µM | TGI (SK-MEL-5 melanoma): > 100 µM | TGI (SK-OV-3 ovarian): > 93.3 µM | TGI (SN12C renal): > 100 µM | TGI (SNB-19 CNS): > 100 µM | TGI (SNB-75 CNS): > 100 µM | TGI (SR leukemia): > 100 µM | TGI (SW-620 colon): > 100 µM | TGI (T-47D breast): > 100 µM | TGI (TK-10 renal): > 100 µM | TGI (U251 CNS): > 100 µM | TGI (UACC-257 melanoma): > 100 µM | TGI (UACC-62 melanoma): > 100 µM | TGI (UO-31 renal): > 100 µM
